Experimental findings from patent US8329687B2, “Pyridooxazepine derivative and use thereof” (Takeda Pharmaceutical Company Limited, priority 2007, dated 2012) are described below.

Molecules are shown by their SMILES. Structures can show the parent of a compound that is named as a salt.

This assay deals with serotonin 5-HT2C receptor (VSV type isoform) stably expressed in CHO cell (Homo sapiens, UniProt P28335, I156V/I160V/N158S). Description: cell-based. Format: cell-based. The note with it: for Emax: CHO, read-out: ratio relative to maximum response by 5-HT (1 μM).
Chain of serotonin 5-HT2C receptor (VSV type isoform) stably expressed in CHO cell (P28335 33-458 I156V/N158S/I160V limits assumed): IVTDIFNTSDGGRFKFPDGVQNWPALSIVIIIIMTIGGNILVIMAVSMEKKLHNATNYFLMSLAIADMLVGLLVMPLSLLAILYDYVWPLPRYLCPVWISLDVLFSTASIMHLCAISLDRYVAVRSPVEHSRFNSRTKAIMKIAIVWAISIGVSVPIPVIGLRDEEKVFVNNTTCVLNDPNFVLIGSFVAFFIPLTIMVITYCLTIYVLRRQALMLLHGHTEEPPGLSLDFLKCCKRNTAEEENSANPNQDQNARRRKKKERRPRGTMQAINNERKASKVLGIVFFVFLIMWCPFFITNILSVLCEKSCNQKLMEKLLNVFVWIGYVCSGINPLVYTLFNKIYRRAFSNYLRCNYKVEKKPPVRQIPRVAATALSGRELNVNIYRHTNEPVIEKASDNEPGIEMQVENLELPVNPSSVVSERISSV

As to `CC(Oc1ccc2c(n1)OCCNC2)C1CC1.CC(Oc1ccc2c(n1)OCCNC2)C1CC1.O=C(O)CCC(=O)O` (single isomer, unassigned; (+)) [Example 36, (+)-8-(1-cyclopropylethoxy)-2,3,4,5-tetrahydropyrido[3,2-f][1,4]oxazepine 0.5 succinate], the “ratio relative to maximum response by 5-HT (1 μM)” value (from here on “ratio relative to maximum response”) is listed as 104.7.
On the same count and under the same terms, then `CC(Oc1ccc2c(n1)OCCNC2)C1CC1.CC(Oc1ccc2c(n1)OCCNC2)C1CC1.O=C(O)CCC(=O)O` (single isomer, unassigned; (-)) [Example 35, (−)-8-(1-cyclopropylethoxy)-2,3,4,5-tetrahydropyrido[3,2-f][1,4]oxazepine 0.5 succinate], with 93.7.
In the case of `CC(C)(C)Oc1ccc2c(n1)OCCNC2` [Example 1, 8-tert-butoxy-2,3,4,5-tetrahydropyrido[3,2-f][1,4]oxazepine], the Emax came to 98.6%.
Still for that read-out and setting: under `CC(C)COc1ccc2c(n1)OCCNC2` [Example 3, 8-isobutoxy-2,3,4,5-tetrahydropyrido[3,2-f][1,4]oxazepine hydrochloride] stands 101%.
With `CC(C)Oc1ccc2c(n1)OCCNC2.CC(C)Oc1ccc2c(n1)OCCNC2.O=C(O)CCC(=O)O` [Example 5, 8-isopropoxy-2,3,4,5-tetrahydropyrido[3,2-f][1,4]oxazepine 0.5 succinate], the “ratio relative to maximum response” value was 97.7.
As for `CCOc1ccc2c(n1)OCCNC2` [Example 13, 8-ethoxy-2,3,4,5-tetrahydropyrido[3,2-f][1,4]oxazepine hydrochloride], the Emax was determined as 97.4%.
With `CC(Oc1ccc2c(n1)OCCNC2)C1CC1.CC(Oc1ccc2c(n1)OCCNC2)C1CC1.O=C(O)CCC(=O)O` (centres unmarked) [Example 16, 8-(1-cyclopropylethoxy)-2,3,4,5-tetrahydropyrido[3,2-f][1,4]oxazepine 0.5 succinate], the “ratio relative to maximum response” value amounted to 98.8.
With `FC1(F)CCC(Oc2ccc3c(n2)OCCNC3)CC1` [Example 23, 8-[(4,4-difluorocyclohexyl)oxy]-2,3,4,5-tetrahydropyrido[3,2-f][1,4]oxazepine hydrochloride], the Emax turned out to be 83.8%.
Same read-out and setting: then `CC(C)[C@H](C)Oc1ccc2c(n1)OCCNC2` [Example 24, 8-{[(1S)-1,2-dimethylpropyl]oxy}-2,3,4,5-tetrahydropyrido[3,2-f][1,4]oxazepine hydrochloride], with 94.7%.
Turning to `CC(C)[C@@H](C)Oc1ccc2c(n1)OCCNC2` [Example 25, 8-{[(1R)-1,2-dimethylpropyl]oxy}-2,3,4,5-tetrahydropyrido[3,2-f][1,4]oxazepine hydrochloride], the Emax came to 98.6%.
Still for that read-out and setting: under `CC[C@H](C)Oc1ccc2c(n1)OCCNC2` [Example 26, 8-{[(1S)-1-methylpropyl]oxy}-2,3,4,5-tetrahydropyrido[3,2-f][1,4]oxazepine hydrochloride] stands 97.6%; under `CC[C@@H](C)Oc1ccc2c(n1)OCCNC2` [Example 27, 8-{[(1R)-1-methylpropyl]oxy}-2,3,4,5-tetrahydropyrido[3,2-f][1,4]oxazepine hydrochloride], 99.8%; under `c1ccc(Oc2ccc3c(n2)OCCNC3)cc1` [Example 28, 8-phenoxy-2,3,4,5-tetrahydropyrido[3,2-f][1,4]oxazepine hydrochloride], 91.2%.
Turning to `CC(C)Sc1ccc2c(n1)OCCNC2` [Example 37, 8-(isopropylthio)-2,3,4,5-tetrahydropyrido[3,2-f][1,4]oxazepine hydrochloride], the Emax is 94.5%.
